The results in this text go back to ChEMBL document CHEMBL5247592, “Discovery of novel VEGFR-2-PROTAC degraders based on the localization of lysine residues via recruiting VHL for the treatment of gastric cancer” (Eur J Med Chem, 2022).

Active and inactive are the calls of the source. The rule behind the calls is not given here. Residues, ends and D or L forms follow the SMILES beside them. *: point of attachment. Cbz = O=C(OCc1ccccc1)* Where only a bound is given, the exact number is not on record here.

The nature of data set [1]: Cytotoxicity against HUVEC cells assessed as inhibition of cell growth incubated for 72 hrs by MTT assay. The format is toxicity, cell-based. The following applies: human.
Data set [2] has as its target T1, Vascular endothelial growth factor receptor 2 (Homo sapiens, UniProt P35968). In words: Inhibition of VEGFR2 (unknown origin) at 1 uM by caliper mobility shift assay relative to control.
Data set [3] concerns the target T2, von Hippel-Lindau disease tumor suppressor/Vascular endothelial growth factor receptor 2 (Homo sapiens, UniProt P35968+P40337). Kind of data set: PROTAC activity at VHL/VEGFR2 in human HGC-27 cells assessed as reduction in VEGFR2 protein level by measuring maximal efficacy incubated for 24 hrs by Western blot analysis relative to control. In kind it is cell-based.
Target sequence in this assay (P35968 20-1356 limits assumed): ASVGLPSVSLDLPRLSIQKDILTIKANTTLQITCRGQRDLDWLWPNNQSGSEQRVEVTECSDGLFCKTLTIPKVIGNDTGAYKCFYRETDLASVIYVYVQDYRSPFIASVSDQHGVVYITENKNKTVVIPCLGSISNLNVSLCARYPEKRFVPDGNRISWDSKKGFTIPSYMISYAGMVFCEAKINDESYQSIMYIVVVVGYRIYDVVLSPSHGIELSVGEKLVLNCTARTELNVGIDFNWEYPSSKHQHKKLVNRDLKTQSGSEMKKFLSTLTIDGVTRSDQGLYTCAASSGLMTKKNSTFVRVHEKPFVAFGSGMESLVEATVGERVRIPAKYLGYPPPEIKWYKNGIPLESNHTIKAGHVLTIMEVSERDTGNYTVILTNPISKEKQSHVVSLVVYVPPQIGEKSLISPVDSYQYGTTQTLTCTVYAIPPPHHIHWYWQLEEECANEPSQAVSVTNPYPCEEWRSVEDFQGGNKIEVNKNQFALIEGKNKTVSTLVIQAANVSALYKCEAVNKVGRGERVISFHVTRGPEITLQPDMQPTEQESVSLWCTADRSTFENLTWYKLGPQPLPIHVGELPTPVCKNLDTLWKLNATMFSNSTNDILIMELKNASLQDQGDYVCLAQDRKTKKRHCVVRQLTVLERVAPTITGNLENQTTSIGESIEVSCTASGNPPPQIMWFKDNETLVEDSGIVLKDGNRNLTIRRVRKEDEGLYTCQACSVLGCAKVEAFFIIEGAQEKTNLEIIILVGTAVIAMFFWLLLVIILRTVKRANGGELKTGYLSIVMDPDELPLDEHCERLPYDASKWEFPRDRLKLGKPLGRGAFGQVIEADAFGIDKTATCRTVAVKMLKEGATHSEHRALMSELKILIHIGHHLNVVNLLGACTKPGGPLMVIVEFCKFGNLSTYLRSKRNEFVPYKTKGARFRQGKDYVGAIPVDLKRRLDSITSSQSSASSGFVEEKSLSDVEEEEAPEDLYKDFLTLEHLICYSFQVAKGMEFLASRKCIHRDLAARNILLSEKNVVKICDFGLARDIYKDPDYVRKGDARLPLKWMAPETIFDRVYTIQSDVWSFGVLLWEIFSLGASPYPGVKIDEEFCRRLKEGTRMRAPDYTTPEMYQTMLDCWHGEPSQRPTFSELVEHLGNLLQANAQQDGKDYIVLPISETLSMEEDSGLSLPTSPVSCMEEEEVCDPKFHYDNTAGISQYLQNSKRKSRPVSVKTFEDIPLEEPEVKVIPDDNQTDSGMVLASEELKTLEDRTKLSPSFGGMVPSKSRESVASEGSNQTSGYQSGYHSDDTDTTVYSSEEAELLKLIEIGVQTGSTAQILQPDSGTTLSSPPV
Target sequence in this assay (P40337 whole entry partner): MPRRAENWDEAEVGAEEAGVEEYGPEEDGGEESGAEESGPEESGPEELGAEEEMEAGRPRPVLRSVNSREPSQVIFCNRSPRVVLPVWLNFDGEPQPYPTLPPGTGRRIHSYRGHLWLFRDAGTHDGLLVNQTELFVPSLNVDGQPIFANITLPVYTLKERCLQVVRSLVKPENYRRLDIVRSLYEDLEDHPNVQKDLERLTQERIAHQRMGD

Data set [4] can be described thus: Cytotoxicity against human GES1 cells assessed as inhibition of cell growth incubated for 72 hrs by MTT assay. In kind it is toxicity, cell-based. On the technique in general: Tetrazolium assays rely on reduction of a dye to a coloured formazan, in cell work by metabolically active cells.
The target of data set [5] is T2, von Hippel-Lindau disease tumor suppressor/Vascular endothelial growth factor receptor 2. In words: PROTAC activity at VHL/VEGFR2 in human HGC-27 cells assessed as reduction in VEGFR2 protein level incubated for 24 hrs by Western blot analysis. The format is cell-based. On the technique in general: Immunoblotting shows a protein as a band on a membrane.
Target sequence in this assay (P35968 whole entry): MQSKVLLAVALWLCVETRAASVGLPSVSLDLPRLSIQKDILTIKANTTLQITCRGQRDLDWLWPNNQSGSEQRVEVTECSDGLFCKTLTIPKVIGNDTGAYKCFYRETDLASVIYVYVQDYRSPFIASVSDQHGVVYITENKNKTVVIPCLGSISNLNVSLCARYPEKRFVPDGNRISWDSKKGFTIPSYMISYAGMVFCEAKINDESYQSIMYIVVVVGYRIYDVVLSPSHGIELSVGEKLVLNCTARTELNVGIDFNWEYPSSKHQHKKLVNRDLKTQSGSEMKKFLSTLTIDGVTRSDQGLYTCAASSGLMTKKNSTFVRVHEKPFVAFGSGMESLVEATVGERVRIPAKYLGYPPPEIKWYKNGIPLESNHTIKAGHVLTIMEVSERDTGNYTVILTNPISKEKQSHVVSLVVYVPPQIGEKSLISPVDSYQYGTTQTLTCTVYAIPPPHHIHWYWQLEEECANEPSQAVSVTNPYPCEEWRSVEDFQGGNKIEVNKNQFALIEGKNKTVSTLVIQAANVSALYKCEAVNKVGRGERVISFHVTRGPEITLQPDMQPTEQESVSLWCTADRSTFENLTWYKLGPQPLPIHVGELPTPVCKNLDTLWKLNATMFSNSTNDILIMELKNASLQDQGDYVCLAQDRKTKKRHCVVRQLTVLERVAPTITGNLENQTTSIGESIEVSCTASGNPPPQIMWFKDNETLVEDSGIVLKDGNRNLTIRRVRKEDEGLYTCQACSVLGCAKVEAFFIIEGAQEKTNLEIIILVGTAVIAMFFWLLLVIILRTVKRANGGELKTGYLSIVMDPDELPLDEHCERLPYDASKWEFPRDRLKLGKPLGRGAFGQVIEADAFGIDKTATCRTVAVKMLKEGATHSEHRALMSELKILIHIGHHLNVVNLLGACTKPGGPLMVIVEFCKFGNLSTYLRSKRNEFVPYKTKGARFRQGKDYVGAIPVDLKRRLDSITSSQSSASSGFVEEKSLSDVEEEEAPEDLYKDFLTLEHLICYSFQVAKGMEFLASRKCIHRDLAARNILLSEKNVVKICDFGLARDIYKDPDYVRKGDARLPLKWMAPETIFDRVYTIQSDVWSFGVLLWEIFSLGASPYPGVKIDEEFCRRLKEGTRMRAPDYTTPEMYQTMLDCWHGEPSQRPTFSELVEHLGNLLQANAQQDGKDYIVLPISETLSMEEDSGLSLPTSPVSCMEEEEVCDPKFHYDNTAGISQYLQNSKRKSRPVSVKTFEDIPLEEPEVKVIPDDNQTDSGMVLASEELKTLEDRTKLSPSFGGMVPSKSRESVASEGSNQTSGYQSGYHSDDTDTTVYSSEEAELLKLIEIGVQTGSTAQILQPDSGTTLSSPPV
Target sequence in this assay (P40337 whole entry): as the sequence (P40337 whole entry partner) above
Data set [6] can be described thus: Cytotoxicity against HEK293T cells assessed as inhibition of cell growth incubated for 72 hrs by MTT assay. In kind it is toxicity, cell-based, HEK-293T. To be noted: human.
The test system of the next data set is HGC-27. In words: Antiproliferative activity against human HGC-27 cells assessed as inhibition of cell growth incubated for 72 hrs by MTT assay. The format is functional, cell-based. To be noted: HGC-27, 72 h.
Data set [7] deals with T2, von Hippel-Lindau disease tumor suppressor/Vascular endothelial growth factor receptor 2. Kind of data set: PROTAC activity at VHL/VEGFR2 in human HGC-27 cells assessed as reduction in VEGFR2 protein level by measuring maximal efficacy at 3.33 uM incubated for 24 hrs by Western blot analysis relative to control. The format is cell-based.
Target sequence in this assay (P35968 20-1356 limits assumed): as the sequence (P35968 20-1356 limits assumed) above
Target sequence in this assay (P40337 whole entry partner): as the sequence (P40337 whole entry partner) above
The target in data set [8] is T1, Vascular endothelial growth factor receptor 2. Kind of data set: Inhibition of VEGFR2 (unknown origin) by caliper mobility shift assay.
Data set [9] deals with T2, von Hippel-Lindau disease tumor suppressor/Vascular endothelial growth factor receptor 2. In words: PROTAC activity at VHL/VEGFR2 in human HGC-27 cells assessed as induction of VEGRF2 protein degradation at 1 uM incubated for 2 hrs by Western blot analysis. In kind it is cell-based.
Target sequence in this assay (P35968 20-1356 limits assumed): as the sequence (P35968 20-1356 limits assumed) above
Target sequence in this assay (P40337 whole entry partner): as the sequence (P40337 whole entry partner) above
Data set [10] shares this target. In words: PROTAC activity at VHL/VEGFR2 in human HGC-27 cells assessed as induction of VEGRF2 protein degradation at 10 uM incubated for 2 hrs by Western blot analysis. The format is cell-based.
Target sequence in this assay (P35968 20-1356 limits assumed): as the sequence (P35968 20-1356 limits assumed) above
Target sequence in this assay (P40337 whole entry partner): as the sequence (P40337 whole entry partner) above
Data set [11] shares this target. In words: PROTAC activity at VHL/VEGFR2 in human HGC-27 cells assessed as induction of VEGRF2 protein degradation at 100 nM incubated for 2 hrs by Western blot analysis. The format is cell-based.
Target sequence in this assay (P35968 20-1356 limits assumed): as the sequence (P35968 20-1356 limits assumed) above
Target sequence in this assay (P40337 whole entry partner): as the sequence (P40337 whole entry partner) above

T1 sequence (P35968 whole entry): as the sequence (P35968 whole entry) above

In the case of `Cc1ccc(NC(=O)Cn2cc(-c3ccc4c(NC(=O)c5ccc(N)cc5)nn(C(=O)CCCCCCCCCCC(=O)N[C@H](C(=O)N5C[C@H](O)C[C@H]5C(=O)NCc5ccc(-c6scnc6C)cc5)C(C)(C)C)c4c3)cn2)cc1C(F)(F)F`, the half-maximal inhibitory concentration (IC50) at 72 h in data set [1] turned out to be 34.6 µM; in [4], 49.7 µM; in data set [6], 25.9 µM. Besides, the inhibition in data set [2] was found to be 96.3%. In [3], the Emax was 81.7%. For the same molecule, in [5], the EC50 came out at 0.32 µM. Further, the IC50 in the data set on HGC-27 was 1.44 µM.

As for `Cc1ccc(NC(=O)Cn2cc(-c3ccc4c(NC(=O)c5ccc(NC(=O)CCCCC(=O)N[C@H](C(=O)N6C[C@H](O)C[C@H]6C(=O)NCc6ccc(-c7scnc7C)cc6)C(C)(C)C)cc5)n[nH]c4c3)cn2)cc1C(F)(F)F`, the IC50 at 72 h in data set [1] was 13 µM; in data set [4], 46.4 µM; in [6] it was 46.8 µM. Moreover, in [7], the Emax is 62.6%. In data set [5], the EC50 came out at 0.33 µM. The IC50 in the data set on HGC-27 was 10.1 µM.

For `Cc1ccc(NC(=O)Cn2cc(-c3ccc4c(NC(=O)c5ccc(N6CCNCC6)cc5)n[nH]c4c3)cn2)cc1C(F)(F)F`, the concentration for half-maximal inhibition (IC50) at 72 h came to 1.7 µM in data set [1], 1.32 µM in data set [4] and 3.57 µM in [6]. Further, the IC50 in data set [8] stood at 0.00042 µM; in the data set with HGC-27 it was 2.49 µM.

Turning to `Cc1ccc(NC(=O)Cn2cc(-c3ccc4c(NC(=O)c5ccc(NC(=O)CCCCCCC(=O)N[C@H](C(=O)N6C[C@H](O)C[C@H]6C(=O)NCc6ccc(-c7scnc7C)cc6)C(C)(C)C)cc5)n[nH]c4c3)cn2)cc1C(F)(F)F`, the IC50 at 72 h was found to be 4.13 µM in data set [1], 14.3 µM in data set [4] and 17.9 µM in data set [6]. Also, in [7], the Emax turned out to be 48%. The EC50 in data set [5] amounted to 0.28 µM. For the same molecule, the IC50 in the data set on HGC-27 was found to be 4.36 µM.

As to `NS(=O)(=O)OC[C@@H]1C[C@@H](n2ccc3c(N[C@H]4CCc5ccccc54)ncnc32)C[C@@H]1O`, the result in [9] was inactive.

On to `CC(C)C[C@@H](C=O)NC(=O)[C@H](CC(C)C)NC(=O)[C@H](CC(C)C)NC(=O)OCc1ccccc1` (Cbz-Leu-Leu-Leu-aldehyde), for which, in data set [10], the result was inactive.

Turning to `Cc1ccc(NC(=O)Cn2cc(-c3ccc4c(NC(=O)CCCCCCCCCCC(=O)N[C@@H](C(=O)N5C[C@H](O)C[C@H]5C(=O)NCc5ccc(-c6scnc6C)cc5)C(C)(C)C)n[nH]c4c3)cn2)cc1C(F)(F)F`, the results for the 50% inhibitory concentration (IC50) at 72 h in [1], in data set [4] and in data set [6] were more than 50 µM, more than 50 µM and more than 100 µM, respectively. The inhibition in [2] was determined as 60.4%. In the data set with HGC-27, the IC50 is more than 50 µM.

For the molecule `CC(=O)N[C@H](C(=O)N1C[C@H](O)C[C@H]1C(=O)NCc1ccc(-c2scnc2C)cc1)C(C)(C)C`, the outcome in [10] was inactive.

As to `Cc1ccc(NC(=O)Cn2cc(-c3ccc4c(NC(=O)c5ccc(NC(=O)CCCCCCCCCCC(=O)N[C@H](C(=O)N6C[C@H](O)C[C@H]6C(=O)NCc6ccc(-c7scnc7C)cc6)C(C)(C)C)cc5)n[nH]c4c3)cn2)cc1C(F)(F)F`, the IC50 at 72 h in data set [1] was 17.6 µM; in data set [4], 31.8 µM; in [6], 9.45 µM. In addition, the Emax in [7] amounted to 42.9%. Also, in data set [5], the EC50 was 0.89 µM. Besides, the IC50 in the data set with HGC-27 amounted to 5.13 µM.

For the molecule `Cc1ccc(NC(=O)Cn2cc(-c3ccc4c(NC(=O)c5ccc(N6CCN(C(=O)NCCCCC(=O)N[C@H](C(=O)N7C[C@H](O)C[C@H]7C(=O)NCc7ccc(-c8scnc8C)cc7)C(C)(C)C)CC6)cc5)n[nH]c4c3)cn2)cc1C(F)(F)F`, the IC50 at 72 h in data set [1], in data set [4] and in data set [6] was more than 100 µM throughout. Moreover, the Emax in data set [3] is 17.3%. Moreover, in data set [5], the EC50 was more than 3.33 µM. Further, the IC50 in the data set with HGC-27 is more than 50 µM.

With `Cc1ccc(NC(=O)Cn2cc(-c3ccc4c(NC(=O)c5ccc(NC(=O)CCCCC(=O)N6CCN(CCCCC(=O)N[C@H](C(=O)N7C[C@H](O)C[C@H]7C(=O)NCc7ccc(-c8scnc8C)cc7)C(C)(C)C)CC6)cc5)n[nH]c4c3)cn2)cc1C(F)(F)F`, the values for the half-maximal inhibitory concentration (IC50) at 72 h in data set [1], in data set [4] and in [6] were 9.36 µM, 23.1 µM and 38.7 µM, respectively. Further, in [3], the Emax is 38.5%. Moreover, the half-maximal effective concentration (EC50) in data set [5] is 0.64 µM. The IC50 with HGC-27 stood at 23.9 µM.

Regarding `Cc1ccc(NC(=O)Cn2cc(-c3ccc4c(NC(=O)c5ccc(N6CCN(CCCCCCC(=O)N[C@H](C(=O)N7C[C@H](O)C[C@H]7C(=O)NCc7ccc(-c8scnc8C)cc7)C(C)(C)C)CC6)cc5)n[nH]c4c3)cn2)cc1C(F)(F)F`, the IC50 at 72 h in [1] was more than 50 µM; in data set [4], 22.4 µM; in [6], 38.6 µM. Moreover, in [3], the Emax turned out to be 38.2%. The EC50 in data set [5] was more than 3.33 µM. The IC50 in the data set with HGC-27 came to 5.5 µM.

As to `Cc1ccc(NC(=O)Cn2cc(-c3ccc4c(NC(=O)c5ccc(N)cc5)n[nH]c4c3)cn2)cc1C(F)(F)F`, the IC50 at 72 h is 0.11 µM in data set [1], 2.35 µM in [4] and 0.025 µM in [6]. Also, the values for the half-inhibitory concentration (IC50) (in data set [8]; in the data set with HGC-27) were 0.0027 µM and 2.12 µM, respectively. Moreover, the result in [11] was inactive.

Broadly, the IC50 is the concentration needed to halve the response being measured. As a reminder, the inhibition is the relative decrease from the control value, in per cent. As a reminder, the EC50 is the concentration at which the effect is half-maximal.
